Experimental data as given in ChEMBL document CHEMBL5724914, “Linking interpersonal differences in gut microbiota composition and drug biotransformation activity” (2024).

Columns and labels:
[1] = (§1) The drug is tested on WLS-370 corresponding to human gut metagenome with ENA study accession number: PRJEB37062 and ENA sample accession number: ERS12561793 for biotransformation under anaerobic condition. The drug concentrations were measured over 9 timepoints collected between 0 and 24 hours of incubation by liquid-chromatography-coupled mass spectrometry (LC–MS); conditions: 2 µM
[2] = human gut metagenome, 24 h, 2 µM
[3] = as §1, with “Z-030” for “WLS-370”, “mouse” for “human”, “ERS12561829” for “ERS12561793”; conditions: 2 µM
[4] = as §1, with “Z-001” for “WLS-370”, “mouse” for “human”, “ERS12561801” for “ERS12561793”; conditions: 2 µM
[5] = as §1, with “Z-004” for “WLS-370”, “to” for “to human gut”, “ERS12561804” for “ERS12561793”; conditions: 2 µM
[6] = human gut metagenome, 24 h, 2 µM; remark: listed apart in the source
[7] = as §1, with “Z-014” for “WLS-370”, “rat” for “human”, “ERS12561814” for “ERS12561793”; conditions: 2 µM
[8] = as §1, with “Z-009” for “WLS-370”, “pig” for “human”, “ERS12561809” for “ERS12561793”; conditions: 2 µM
[9] = as §1, with “WLS-086” for “WLS-370”, “ERS12561752” for “ERS12561793”; conditions: 2 µM
[10] = human gut metagenome, 24 h, 2 µM; remark: listed apart in the source
[11] = as §1, with “Z-003” for “WLS-370”, “pig” for “human”, “ERS12561803” for “ERS12561793”; conditions: 2 µM
[12] = as §1, with “Z-027” for “WLS-370”, “to” for “to human gut”, “ERS12561826” for “ERS12561793”; conditions: 2 µM
[13] = human gut metagenome, 24 h, 2 µM; remark: listed apart in the source
[14] = human gut metagenome, 24 h, 2 µM; remark: listed apart in the source
[15] = as §1, with “Z-023” for “WLS-370”, “to” for “to human gut”, “ERS12561822” for “ERS12561793”; conditions: 2 µM
[16] = human gut metagenome, 24 h, 2 µM; remark: listed apart in the source
[17] = human gut metagenome, 24 h, 2 µM; remark: listed apart in the source
[18] = human gut metagenome, 24 h, 2 µM; remark: listed apart in the source
[19] = as §1, with “Z-016” for “WLS-370”, “mouse” for “human”, “ERS12561815” for “ERS12561793”; conditions: 2 µM
[20] = human gut metagenome, 24 h, 2 µM; remark: listed apart in the source
Also: call rule not given here.

| SMILES | Bacterial Biotransformation [1] | Bacterial Biotransformation [2] | Bacterial Biotransformation [3] | Bacterial Biotransformation [4] | Bacterial Biotransformation [5] | Bacterial Biotransformation [6] | Bacterial Biotransformation [7] | Bacterial Biotransformation [8] | Bacterial Biotransformation [9] | Bacterial Biotransformation [10] | Bacterial Biotransformation [11] | Bacterial Biotransformation [12] | Bacterial Biotransformation [13] | Bacterial Biotransformation [14] | Bacterial Biotransformation [15] | Bacterial Biotransformation [16] | Bacterial Biotransformation [17] | Bacterial Biotransformation [18] | Bacterial Biotransformation [19] | Bacterial Biotransformation [20] |
| --- | --- | --- | --- | --- | --- | --- | --- | --- | --- | --- | --- | --- | --- | --- | --- | --- | --- | --- | --- | --- |
| CC(O)(CS(=O)(=O)c1ccc(F)cc1)C(=O)Nc1ccc(C#N)c(C(F)(F)F)c1 (stereo not given) [BICALUTAMIDE] | Compound NOT metabolized | Compound NOT metabolized | Compound NOT metabolized | Compound NOT metabolized | Compound NOT metabolized | Compound NOT metabolized | Compound NOT metabolized | Compound NOT metabolized | Compound NOT metabolized | Compound NOT metabolized | Compound NOT metabolized | Compound NOT metabolized | Compound NOT metabolized | Compound NOT metabolized | Compound NOT metabolized | Compound NOT metabolized | Compound NOT metabolized | Compound NOT metabolized | Compound NOT metabolized | Compound NOT metabolized |
| O=C(O)COCCN1CCN(C(c2ccccc2)c2ccc(Cl)cc2)CC1 (stereo not given) [CETIRIZINE] | Compound metabolized | Compound metabolized | Compound NOT metabolized | Compound NOT metabolized | Compound metabolized | Compound metabolized | Compound NOT metabolized | Compound metabolized | Compound metabolized | Compound metabolized | Compound metabolized | Compound NOT metabolized | Compound metabolized | Compound metabolized | Compound metabolized | Compound metabolized | Compound metabolized | Compound metabolized | Compound metabolized | Compound metabolized |
| CCN1CCCC1CNC(=O)c1cc(S(N)(=O)=O)ccc1OC (stereo not given) [SULPIRIDE] | Compound NOT metabolized | Compound NOT metabolized | Compound NOT metabolized | Compound metabolized | Compound metabolized | Compound NOT metabolized | Compound NOT metabolized | Compound metabolized | Compound metabolized | Compound metabolized | Compound metabolized | Compound NOT metabolized | Compound metabolized | Compound metabolized | Compound NOT metabolized | Compound metabolized | Compound NOT metabolized | Compound NOT metabolized | Compound NOT metabolized | Compound metabolized |
| COc1cc2nc(N3CCN(C(=O)c4ccco4)CC3)nc(N)c2cc1OC [PRAZOSIN] | Compound metabolized | Compound NOT metabolized | Compound NOT metabolized | Compound NOT metabolized | Compound NOT metabolized | Compound NOT metabolized | Compound NOT metabolized | Compound NOT metabolized | Compound metabolized | Compound metabolized | Compound NOT metabolized | Compound NOT metabolized | Compound metabolized | Compound metabolized | Compound NOT metabolized | Compound metabolized | Compound metabolized | Compound NOT metabolized | Compound NOT metabolized | Compound metabolized |
| CNC(=C[N+](=O)[O-])NCCSCc1ccc(CN(C)C)o1 [RANITIDINE] | Compound NOT metabolized | Compound NOT metabolized | Compound NOT metabolized | Compound metabolized | Compound metabolized | Compound NOT metabolized | Compound metabolized | Compound metabolized | Compound NOT metabolized | Compound metabolized | Compound metabolized | Compound NOT metabolized | Compound metabolized | Compound NOT metabolized | Compound metabolized | Compound metabolized | Compound metabolized | Compound metabolized | Compound metabolized | Compound NOT metabolized |
| Br.CN(C)CCCC1(c2ccc(F)cc2)OCc2cc(C#N)ccc21 (stereo not given) [CITALOPRAM HYDROBROMIDE] | Compound metabolized | Compound NOT metabolized | Compound NOT metabolized | Compound NOT metabolized | Compound NOT metabolized | Compound metabolized | Compound NOT metabolized | Compound metabolized | Compound metabolized | Compound metabolized | Compound NOT metabolized | Compound NOT metabolized | Compound metabolized | Compound metabolized | Compound NOT metabolized | Compound metabolized | Compound NOT metabolized | Compound metabolized | Compound NOT metabolized | Compound metabolized |
| COc1ccc(CCN(C)CCCC(C#N)(c2ccc(OC)c(OC)c2)C(C)C)cc1OC (stereo not given) | Compound metabolized | Compound NOT metabolized | Compound NOT metabolized | Compound NOT metabolized | Compound NOT metabolized | Compound NOT metabolized | Compound NOT metabolized | Compound metabolized | Compound metabolized | Compound metabolized | Compound metabolized | Compound NOT metabolized | Compound metabolized | Compound metabolized | Compound metabolized | Compound metabolized | Compound NOT metabolized | Compound NOT metabolized | Compound NOT metabolized | Compound metabolized |
| NC(=O)N1c2ccccc2CC(=O)c2ccccc21 [OXCARBAZEPINE] | Compound metabolized | Compound NOT metabolized | Compound NOT metabolized | Compound NOT metabolized | Compound metabolized | Compound NOT metabolized | Compound NOT metabolized | Compound metabolized | Compound NOT metabolized | Compound NOT metabolized | Compound metabolized | Compound NOT metabolized | Compound NOT metabolized | Compound NOT metabolized | Compound metabolized | Compound NOT metabolized | Compound NOT metabolized | Compound NOT metabolized | Compound NOT metabolized | Compound NOT metabolized |
